# In patent publication US6372209B1, “Vaginal lactobacillus medicant” (Gyne Logix, Inc., priority 1997, dated 2002):
# Read-outs that look alike come from different tables or passages of the source.
# How the values were obtained:
# [1] = test system: women with recurrent bacterial vaginosis; conditions: for Percentage Women Colonized with H2O2-producing Lactobacilli / Women Colonized with H2O2-producing Lactobacilli, number: n = 15
# Method: In this study, a group of women with recurrent bacterial vaginosis (BV) was treated with 2% Clindamycin cream, once daily for three days, followed by Lactobacillus suppositories containing the Lactobacillus crispatus CTV-05 strain twice daily for three days. A group of women from the same clinic with recurrent bacterial vaginosis treated with Clindamycin cream alone were included for comparison. […] The patients were evaluated for vaginal presence of H2O2-producing Lactobacilli, and the absence of bacterial vaginosis infection.
# [2] = test system: Candida albicans ATCC 60193 (cervical isolate); assay: Agar overlay zone of inhibition of yeast growth; format: cell-based; conditions: Organism Growth Time Period 48 hours
# Method: MRS agar was allowed to harden at a 5 mm slant. Lactobacillus crispatus CTV-05 was streaked across the diameter of the plate and was grown for 24, 48 or 72 hours under both anaerobic and ambient atmospheres. Control strains of Lactobacillus jensenii CTV-01, Lactobacillus crispatus CTV-02, Lactobacillus crispatus CTV-03, and Lactobacillus crispatus CTV-04 were grown in the same way. The plates were overlayed with YM agar with 10 mM CNNaS (sodium thiocyanate, previously reported to be an inhibitor of yeast growth) or without CNNaS. The agar overlays were inoculated with one of two strains of Candida albicans ATCC 60193 (cervical isolate) or Candida albicans ATCC 14053 (human blood isolate). Zones of inhibition were measured. […] Therefore, Lactobacillus crispatus CTV-05 inhibits yeast growth in vitro.
compound,measurement,setting,value
CCC[C@@H]1C[C@@H](C(=O)N[C@@H]([C@H]2O[C@H](SC)[C@H](O)[C@@H](O)[C@H]2O)[C@H](C)Cl)N(C)C1 [Clindamycin],Percentage Women Colonized with H2O2-producing Lactobacilli,[1]; Enrollment,33%
same,"Women Colonized with H2O2-producing Lactobacilli, number",[1]; Enrollment,5
same,Percentage Women Free of Bacterial Vaginosis,[1]; One month post treatment,53%
same,Percentage Women Colonized with H2O2-producing Lactobacilli,[1]; One month post treatment,40%
same,"Women Colonized with H2O2-producing Lactobacilli, number",[1]; One month post treatment,6
same,Percentage Women Free of Bacterial Vaginosis,[1]; One week post treatment,87%
same,Percentage Women Colonized with H2O2-producing Lactobacilli,[1]; One week post treatment,7%
same,"Women Colonized with H2O2-producing Lactobacilli, number",[1]; One week post treatment,1
same,Percentage Women Free of Bacterial Vaginosis,[1]; Three months post treatment,26%
same,Percentage Women Colonized with H2O2-producing Lactobacilli,[1]; Three months post treatment,33%
same,"Women Colonized with H2O2-producing Lactobacilli, number",[1]; Three months post treatment,5
Lactobacillus crispatus CTV-02 [reference compound],Zone of Inhibition (in millimeters),[2],3 to 0 mm
Lactobacillus crispatus CTV-03 [reference compound],Zone of Inhibition (in millimeters),[2],slight inhibition
Lactobacillus crispatus CTV-04 [reference compound],Zone of Inhibition (in millimeters),[2],5 to 2 mm
Lactobacillus jensenii CTV-01 [reference compound],Zone of Inhibition (in millimeters),[2],1 to 0 mm
